Assay results reported in PubChem BioAssay (NCI).
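Cultured in 96-well plates, cells were exposed to test compound for 48 hours across five concentrations. TGI denotes the concentration required for complete inhibition of growth.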

Tests used:
Assay in all cases: NCI tumour cell line growth inhibition, 48 h
[1] = test system: MALME-3M melanoma
[2] = test system: RXF 393 renal
[3] = test system: MDA-MB-435
[4] = test system: OVCAR-4 ovarian
[5] = test system: IGROV1 ovarian
[6] = test system: U251 CNS
[7] = test system: 786-0 renal
[8] = test system: RPMI-8226 leukemia
[9] = test system: MOLT-4 leukemia
[10] = test system: M14 melanoma
[11] = test system: EKVX NSCLC
[12] = test system: HCC-2998 colon
[13] = test system: A498 renal
[14] = test system: SNB-75 CNS
[15] = test system: K-562 leukemia
[16] = test system: OVCAR-8 ovarian
[17] = test system: HS 578T breast
[18] = test system: OVCAR-5 ovarian
[19] = test system: DU-145 prostate
[20] = test system: A549 NSCLC
[21] = test system: UO-31 renal
[22] = test system: SF-539 CNS
[23] = test system: SK-MEL-5 melanoma
[24] = test system: HCT-116 colon
[25] = test system: NCI-H460 lung
[26] = test system: SK-MEL-2 melanoma
[27] = test system: HCT-15 colon
[28] = test system: MDA-MB-231 breast
[29] = test system: SF-295 CNS
[30] = test system: SW-620 colon
[31] = test system: SNB-19 CNS
[32] = test system: NCI-H23 lung
[33] = test system: MDA-N
[34] = test system: KM12 colon
[35] = test system: CCRF-CEM leukemia
[36] = test system: SK-MEL-28 melanoma
[37] = test system: OVCAR-3 ovarian
[38] = test system: UACC-257 melanoma
[39] = test system: HOP-92 NSCLC
[40] = test system: HT29 colon
[41] = test system: TK-10 renal
[42] = test system: T-47D breast
[43] = test system: NCI-H226 lung
[44] = test system: SN12C renal
[45] = test system: CAKI-1 renal
[46] = test system: HL-60(TB) leukemia
[47] = test system: SF-268 CNS
[48] = test system: SR leukemia
[49] = test system: ACHN renal
[50] = test system: HOP-62 NSCLC
[51] = test system: COLO 205 colon
[52] = test system: UACC-62 melanoma
[53] = test system: LOX IMVI melanoma
[54] = test system: SK-OV-3 ovarian
[55] = test system: PC-3 prostate
[56] = test system: NCI-H522 lung
[57] = test system: NCI/ADR-RES ovarian
[58] = test system: BT-549 breast

Measured: TGI

CCN(CC)C(=O)CCNC(C)Cc1c[nH]c2ccccc12 (configuration not stated)
> 100 µM: [1] | [2] | [3] | [4] | [5] | [6] | [7] | [8] | [9] | [10] | [11] | [12] | [13] | [14] | [15] | [16] | [17] | [18] | [19] | [20] | [21] | [22] | [23] | [24] | [25] | [26] | [27] | [28] | [29] | [30] | [31] | [32] | [33] | [34] | [35] | [36] | [37] | [38] | [39] | [40] | [41] | [42] | [43] | [44] | [45] | [46] | [47] | [48] | [49] | [50] | [51] | [52] | [53] | [54] | [55] | [56] | [57]

CC1(C)C(=O)C2(N)CCC1C2 (configuration not stated)
> 100 µM: [3] | [4] | [6] | [7] | [8] | [12] | [14] | [16] | [19] | [21] | [24] | [25] | [27] | [28] | [31] | [32] | [33] | [34] | [35] | [36] | [38] | [39] | [58] | [41] | [42] | [43] | [44] | [45] | [47] | [48] | [49] | [51] | [52] | [53] | [57]
